What was measured:
Type in all cases: in vivo
Veronica persica [1] = assay: Pre-emergence herbicidal action against weed plants (greenhouse pot test); details: application rate 320 g/ha, scored visually after 3 weeks vs untreated controls, 100% = plants have died, 0% = like control plants
Source text: (§1) Seeds of mono- and dicotyledonous weed and crop plants are set out in wood fiber pots in sandy loam soil and covered with soil. The inventive compounds formulated in the form of wettable powders (WP) or as emulsion concentrates (EC) are then applied to the surface of the covering earth as an aqueous suspension or emulsion at a water application rate of 600 to 800 l/ha (converted) with addition of 0.2% wetting agent. After the treatment, the pots are placed in a greenhouse and kept under good growth conditions for the test plants. The damage to the test plants is scored visually after an experiment time of 3 weeks in comparison to untreated controls (herbicidal action in percent (%): 100% action=plants have died, 0% action=like control plants).

Veronica persica [2] = assay: Post-emergence herbicidal action against weed plants (greenhouse pot test); details: one-leaf stage, application rate 320 g/ha, scored visually after about 3 weeks vs untreated controls, 100% = plants have died
Procedure: (§2) Seeds of mono- and dicotyledonous weed and crop plants are set out in wood fiber pots in sandy loam soil, covered with soil and cultivated in a greenhouse under good growth conditions. 2 to 3 weeks after sowing, the trial plants are treated at the one-leaf stage. The inventive compounds formulated in the form of wettable powders (WP) or as emulsion concentrates (EC) are then sprayed onto the green plant parts as an aqueous suspension or emulsion with a water application rate of 600 to 800 l/ha (converted) with addition of 0.2% wetting agent. After the trial plants have stood in the greenhouse under optimal growth conditions for about 3 weeks, the action of the preparations is scored visually in comparison to untreated controls (herbicidal action in percent (%): 100% action=plants have died, 0% action=like control plants).

ABUTH = assay: as above; details: one-leaf stage, application rate 320 g/ha, scored visually after about 3 weeks vs untreated controls, 100% = plants have died
Procedure: as §2

Amaranthus retroflexus = assay: Pre-emergence herbicidal action against weed plants (greenhouse pot test); details: application rate 320 g/ha, scored visually after 3 weeks vs untreated controls, 100% = plants have died, 0% = like control plants
Source text: as §1

Ipomoea purpurea = assay: Post-emergence herbicidal action against weed plants (greenhouse pot test); details: one-leaf stage, application rate 320 g/ha, scored visually after about 3 weeks vs untreated controls, 100% = plants have died
Procedure: as §2

Compound	herbicidal action in percent, VERPE (Veronica persica [1]) [%]	herbicidal action in percent, VERPE (Veronica persica [2]) [%]	herbicidal action in percent, ABUTH (ABUTH) [%]	herbicidal action in percent, AMARE (Amaranthus retroflexus) [%]	herbicidal action in percent, PHBPU (Ipomoea purpurea) [%]
COC(=O)c1nc(-c2ccc(Cl)c(C3CO3)c2F)cc(N)c1Cl (centres unmarked) [Example 9-618]	100	90	80		
COC(=O)c1nc(-c2ccc(Cl)c(C3COC(C)(C)O3)c2F)cc(N)c1Cl (centres unmarked) [Example 9-842]	100	100	80	90	90

From patent US8962529B2, “Substituted picolinic acids, salts and acid derivatives thereof, and use thereof as herbicides” (Bayer Cropscience AG, priority 2010, dated 2015)
